This is an account of results in patent publication US11053516B2, “Glucose composition, microbial fermentation raw material, and method of producing chemical product” (Toray Industries, Inc., priority 2016, dated 2021).

The text on the data set: Further, the glucose composition was adjusted to a final pH of 7 using 6 N sodium hydroxide.

Consider `O=C(O)/C=C/c1ccc(O)cc1` [Coumaric acid, trans-p-coumaric acid], for which the Solubility in water result is “not dissolved”.
